Measured values reported in ChEMBL document CHEMBL5523709, “Synthesis and Evaluation of diaryl ether modulators of the leukotriene A4 hydrolase aminopeptidase activity” (Eur J Med Chem, 2024).
Activity calls are given as the source filed them. No cut-off for these calls is given here.

Tests used:
[1] = target: T1, Leukotriene A-4 hydrolase (Homo sapiens, UniProt P09960); assay: Inhibition of human recombinant LTA4H aminopeptidase activity assessed as alanine-p-nitroanilide (Ala-pNA) hydrolysis by LCMS analysis
T1 sequence (P09960 whole entry): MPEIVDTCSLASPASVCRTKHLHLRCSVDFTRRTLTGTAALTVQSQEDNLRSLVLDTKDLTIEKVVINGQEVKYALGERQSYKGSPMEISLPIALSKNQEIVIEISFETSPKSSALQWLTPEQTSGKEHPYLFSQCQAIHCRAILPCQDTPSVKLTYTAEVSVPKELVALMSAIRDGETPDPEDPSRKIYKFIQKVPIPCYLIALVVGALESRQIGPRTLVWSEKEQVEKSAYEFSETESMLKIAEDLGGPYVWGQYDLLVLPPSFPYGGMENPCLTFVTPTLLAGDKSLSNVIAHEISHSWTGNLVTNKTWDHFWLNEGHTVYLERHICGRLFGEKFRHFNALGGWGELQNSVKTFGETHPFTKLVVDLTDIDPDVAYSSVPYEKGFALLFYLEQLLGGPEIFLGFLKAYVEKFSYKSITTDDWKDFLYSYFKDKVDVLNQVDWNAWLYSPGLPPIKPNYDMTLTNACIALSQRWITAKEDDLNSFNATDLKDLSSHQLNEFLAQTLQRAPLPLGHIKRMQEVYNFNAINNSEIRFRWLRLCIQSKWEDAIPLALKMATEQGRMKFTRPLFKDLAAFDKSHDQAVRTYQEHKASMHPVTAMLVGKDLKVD

[2] = Metabolic stability in mouse liver microsomes assessed as depletion measured after 30 mins; type: ADME, Microsome; details: read-out: Drug degradation
[3] = target: T1, Leukotriene A-4 hydrolase; assay: Activation of human recombinant LTA4H aminopeptidase activity assessed as alanine-p-nitroanilide (Ala-pNA) hydrolysis by LCMS analysis
[4] = target: T2, Leukotriene A-4 hydrolase (Homo sapiens) (UniProt P09960); assay: Activation of human recombinant LTA4H aminopeptidase activity assessed as alanine-p-nitroanilide (Ala-pNA) hydrolysis at 10 uM measured within 2 mins time window by LCMS analysis
T2 sequence (whole entry): T1 sequence (P09960 whole entry)

Mus musculus [5] = species on record: Mus musculus; assay: Anti-inflammatory activity against 1000 CFU of Klebsiella pneumonia ATCC 43816 intranasal infected C57BL/6 mouse pneumonia model assessed as mouse survival treated a day after bacterial exposure measured upto 14 days; type: functional, organism-based; details: time <= 14.0 day
Mus musculus [6] = species on record: Mus musculus; assay: Reduction in LTB4 level in 1000 CFU of Klebsiella pneumonia ATCC 43816 intranasal infected C57BL/6 mouse pneumonia model assessed as LTB4 level in bronchoalveolar lavage fluid (BALF) ELISA based by Epoxide hydrolase assay; type: functional

Row | Structure (SMILES) | metabolised at 0.5 h [2] [%] | EC50 [3] [nM] | other results
1 | Clc1ccc(Oc2ccc(N3CCNCC3)cc2)cc1 |  |  | IC50 [1]: 3330 nM
2 | C[C@]12CC[C@H]3[C@@H](CCC4=CC(=O)CC[C@@]43C)[C@@H]1CC[C@@H]2O [TESTOSTERONE] | 98 |  | 
3 | Nc1cc(-c2ccc(Oc3ccc(Cl)cc3)cc2)n[nH]1 |  | 120 | 
4 | Nc1nc(-c2ccc(Cc3ccccc3)cc2)cs1 |  | 240 | 
5 | Nc1cc[nH]n1 | 18 |  | Activity [4]: inactive; Activity (Mus musculus [5]): inactive; Activity (Mus musculus [6]): Active
